Laboratory results published in patent US12296006B2, “Anti-LY6H antibodies and antibody drug conjugates” (Bluefin BioMedicine, Inc., priority 2017, dated 2025).
Read-outs that look alike come from different tables or passages of the source.

System: DMS79 cells
Assay: In vitro growth inhibition and isobologram analysis (CellTiter Glo): DMS79
Type: cell-based, human
Details: 5 days, read-out: IC50 (growth), DMS79, alone
Experimental: SCLC cells were seeded onto 96 well plates at 3000-5,000 cells/well on the day of treatment. To distinguish synergy from additivity of the combination of LY6H-PBD with Olaparib (selleckchem, Cat #S1060), etoposide (Cell Signaling Technology, Cat #2200S) or cisplatin (Sigma, Cat #P4394), for each combination, a specific isobologram was constructed. […] Concentrations ranging from 0.0001-10 ug/ml were used for 12G7-PBD, from 0.0001 to 100 uM for olaparib, cisplatin, and etoposide. Cell viability was measured 5 days later by CellTiter Glo® Luminescent Cell viability Assay™ (Promega, Madison, WI) according to manufacturer's instructions. Each IC50 was graphically derived from the growth curve graphed by Prism™ showing percent survival vs log drug concentrations.
The 50% growth-inhibitory activity of the drug combinations was measured after 5 days of treatment. The line of additivity for the isobologram was constructed by interpolating the two points corresponding to the IC50 of the two drugs alone. Graphically, synergy, additivity, and antagonism are indicated by a point plotted below, on, or above the line of additivity, respectively.

SMILES | IC50 [nM] | IC50 (Homo sapiens, DMS-79, 120 h) [nM]
N.N.[Cl][Pt][Cl] [cisplatin] | 310 | –
COc1cc([C@@H]2c3cc4c(cc3[C@@H](O[C@@H]3O[C@@H]5CO[C@@H](C)O[C@H]5[C@H](O)[C@H]3O)[C@H]3COC(=O)[C@H]23)OCO4)cc(OC)c1O [etoposide] | – | 290
O=C(c1cc(Cc2n[nH]c(=O)c3ccccc23)ccc1F)N1CCN(C(=O)C2CC2)CC1 [olaparib] | – | 4070
